Assay results taken from patent publication US20220151292A1, “NICOTINE POUCH COMPOSITION” (NCP NextGen A/S, priority 2020, published 2022).

Experiments:
Format in all cases: physicochemical
[1] = Release experiment: nicotine released from NPR (16%) in water with 1 equivalent of AlCl3 (Example 6E); conditions: 1 equivalent AlCl3, water, nicotine 28 mg/L, 25 degrees Celsius, 150 rpm, HPLC
Protocol: (§1) The release experiment was performed by adding NPR (16%) and 1 equivalent of AlCl3 to a volume of water corresponding to a nicotine concentration of 28 mg/L. The equivalents are relative to nicotine. The temperature of the water was 25 degrees Celsius throughout the experiment and stirring of 150 rpm was applied throughout the experiment. pH was measured at experiment start and end. The pH was in all experiments below 7.0 at both the start and end of the experiment.
(§2) A relative low nicotine concentration is used in order to reduce the impact of equilibrium on both the release rate and effective release of nicotine from the ion-exchange resin.
(§3) Samples were taken out at varying timepoints and analyzed for nicotine content using standard HPLC. The result is presented as percentage of nicotine released.

[2] = Release experiment: nicotine released from NPR (16%) in water with varying salts (CaCl2, NaCl) and equivalents (Example 6A); conditions: NPR (16%) in 900 mL water, nicotine 28 mg/L, 25 degrees Celsius, 100 rpm, HPLC
[3] = Release experiment: nicotine released from NPR (16%) in water with varying equivalents of CaCl2 (Example 6B); conditions: nicotine 28 mg/L, 25 degrees Celsius, 100 rpm, HPLC
Protocol: as §1, with “and varying” for “and 1”, “of CaCl2” for “of AlCl3”, “equivalents of CaCl2” for “equivalents”, “of 100” for “of 150”
as §2, §3

[4] = Release experiment: nicotine released from nicotine premixes of varying nicotine content with 1 equivalent of CaCl2 (Example 6D); conditions: nicotine premix, 1 equivalent CaCl2, water, nicotine 28 mg/L, 25 degrees Celsius, 150 rpm, HPLC
Protocol: as §1, with “adding nicotine premix having varying content of nicotine” for “adding NPR (16%)”, “of CaCl2” for “of AlCl3”, “of water, whereby a” for “of water”, “corresponding” for “corresponding to a”, “28 mg/L is obtained.” for “28 mg/L.”, “The equivalent of CaCl2 is” for “The equivalents are”
as §2, §3

[5] = Release experiment: nicotine released from NPR (16%) in water with varying equivalents of MgCl2 (Example 6C); conditions: nicotine 28 mg/L, 25 degrees Celsius, 100 rpm, HPLC
Protocol: as §1, with “varying equivalents” for “1 equivalent”, “MgCl2” for “AlCl3”, “equivalents of MgCl2” for “equivalents”, “100” for “150”
as §2, §3

[Cl][Al]([Cl])[Cl] [AlCl3]
effect of AlCl3 on release of nicotine from NPR [1]: significantly increases the release of nicotine

[Ca+2].[Cl-].[Cl-] [CaCl2]
effect of the salt on release of nicotine from NPR [2]: significantly increases the release of nicotine | effect of CaCl2 on release of nicotine from NPR [3]: significantly increases the release of nicotine | effect of CaCl2 on release of nicotine from premixes [4]: significantly increases the release of nicotine

[Cl-].[Cl-].[Mg+2] [MgCl2]
effect of MgCl2 on release of nicotine from NPR [5]: significantly increases the release of nicotine

[Cl-].[Na+] [NaCl, reference compound]
effect of the salt on release of nicotine from NPR [2]: much lower effect on the release of nicotine
